Results taken from article PMC2891903 (The Journal of nutritional biochemistry, 2010).

Target: T1, vitamin D receptor (VDR) (Homo sapiens, UniProt P11473)
T1 sequence (P11473 1-427): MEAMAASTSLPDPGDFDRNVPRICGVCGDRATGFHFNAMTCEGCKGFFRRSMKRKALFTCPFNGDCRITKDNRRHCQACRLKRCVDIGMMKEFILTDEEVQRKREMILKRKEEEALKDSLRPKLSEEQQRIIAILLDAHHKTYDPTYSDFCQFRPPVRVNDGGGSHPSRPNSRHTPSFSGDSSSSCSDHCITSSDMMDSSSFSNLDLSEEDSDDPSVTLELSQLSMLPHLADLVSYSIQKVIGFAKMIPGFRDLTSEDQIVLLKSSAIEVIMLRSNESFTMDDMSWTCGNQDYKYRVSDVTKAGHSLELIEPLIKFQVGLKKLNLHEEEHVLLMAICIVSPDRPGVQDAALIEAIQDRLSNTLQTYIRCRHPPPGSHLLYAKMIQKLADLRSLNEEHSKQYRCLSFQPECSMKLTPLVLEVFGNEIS
T1 sequence (P19793 1-462 partner): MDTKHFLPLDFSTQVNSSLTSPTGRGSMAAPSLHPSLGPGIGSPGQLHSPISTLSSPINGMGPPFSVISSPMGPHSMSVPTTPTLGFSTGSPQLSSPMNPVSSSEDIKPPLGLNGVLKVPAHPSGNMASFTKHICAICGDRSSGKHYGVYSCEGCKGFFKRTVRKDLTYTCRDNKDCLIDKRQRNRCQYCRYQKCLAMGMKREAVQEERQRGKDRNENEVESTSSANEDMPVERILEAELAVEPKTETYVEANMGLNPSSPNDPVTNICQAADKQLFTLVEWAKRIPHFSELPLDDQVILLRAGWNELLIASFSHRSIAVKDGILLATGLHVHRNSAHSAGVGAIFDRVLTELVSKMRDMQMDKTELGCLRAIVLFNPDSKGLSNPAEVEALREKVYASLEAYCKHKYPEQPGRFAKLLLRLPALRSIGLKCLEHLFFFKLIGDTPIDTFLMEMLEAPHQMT
Assay: competitive displacement of [3H][…] from VDR in transfected COS-7 lysate
Format: binding

Ki: 2900 nM
Structure (SMILES): COc1cc(/C=C/C(=O)CC(=O)/C=C/c2ccc(O)c(OC)c2)ccc1O [CM, curcumin]
